Results as given in paper PMC8175350, “Drug repurposing screens identify chemical entities for the development of COVID-19 interventions” (Nature Communications, 2021).
Values joined by “and” are separate entries in the source; they are usually repeats but may differ in a detail not shown here. Equal values may be shown once. Read-outs that look alike come from different tables or passages of the source.

Tests used:
SARS-CoV-2 [1] = test: microbe, parasite or virus in culture; type: cell-based; conditions: for %infected: replicate wells n=1-3
[2] = Uninfected HeLa-ACE2 24 h live/dead cytotoxicity counter screen; type: cell-based, human; conditions: human, uninfected HeLa-ACE2 cells, geomean; read-out: uninfected HeLa-ACE2 cytotoxicity CC50
HeLa-ACE2 cells [3] = test: as above; type: cell-based, human; conditions: for cytotox: HeLa-ACE2, replicate wells n=1-3
SARS-CoV-2 [4] = test: microbe, parasite or virus in culture; type: cell-based; conditions: for %infected: Calu-3, replicate wells n=1, n=3
SARS-CoV-2 [5] = test: microbe, parasite or virus in culture; type: cell-based; conditions: for SARS-CoV-2 % infected cells: 10 µM after 1 h infection; for TOA: HeLa-ACE2, replicate wells n=1-3
SARS-CoV-2 [6] = type: cell-based
HeLa-ACE2 cells [7] = test: Total cell count in the HeLa-ACE2 TOA (time of addition) assay; type: cell-based, human; conditions: Homo sapiens, HeLa-ACE2; read-out: HeLa-ACE2 TOA cell count EC50 GeoMean
Calu-3 cells [8] = conditions: read-out: Calu-3 cell count EC50 GeoMean
Calu-3 cells [9] = test system: Calu-3 cells
HeLa-ACE2 cells [10] = test: cells; conditions: Homo sapiens
Calu-3 cells [11] = test: cells; conditions: Homo sapiens, Calu-3, 48 h, read-out: Calu-3 cell count Sinf Average
in vitro = conditions: human, Calu-3 uninfected cytotoxicity CC50 GeoMean

SMILES: Cc1cccc(/C=N/Nc2cc(N3CCOCC3)nc(OCCc3ccccn3)n2)c1 [Apilimod]
- increase in EC50 from MOI = 0.09 to MOI = 2.2 (SARS-CoV-2 [1]; HeLa-ACE2): 3.7 fold
- EC50 (SARS-CoV-2 [1]; HeLa-ACE2, geomean, read-out: SARS-CoV-2 EC50): 11.3 nM
- EC50 (SARS-CoV-2 [1]; HeLa-ACE2, individual values of 9 independent experiments, read-out: EC50 (µM), Fig 1c): 32 nM and 10 nM (2×) and 9 nM (3×) and 6 nM (2×) and 35 nM
- %infected (SARS-CoV-2 [1]; HeLa-ACE2, concentration log[M] -5.61909): -89.9366% and -97.9564% and -96.6883% and -98.5854% and -99.176% and -97.4315% and -98.076% and -88.0351% and -79.0377%
- %infected (SARS-CoV-2 [1]; HeLa-ACE2, concentration log[M] -6.09621): -87.038% and -98.4457% and -97.9148% and -98.877% and -98.5692% and -99.1064% and -97.5527% and -92.9215% and -87.0799%
- %infected (SARS-CoV-2 [1]; HeLa-ACE2, concentration log[M] -6.57334): -75.6225% and -96.1764% and -98.2769% and -98.0074% and -97.3703% and -99.7483% and -98.3422% and -89.6186% and -88.4431%
- %infected (SARS-CoV-2 [1]; HeLa-ACE2, concentration log[M] -7.05046): -82.6962% and -96.6541% and -97.5624% and -97.8117% and -96.6757% and -95.0973% and -96.8567% and -85.1569% and -75.3432%
- %infected (SARS-CoV-2 [1]; HeLa-ACE2, concentration log[M] -7.52758): -73.6156% and -84.2045% and -91.7586% and -85.2086% and -88.488% and -83.6715% and -88.6894% and -80.6843% and -66.0801%
- %infected (SARS-CoV-2 [1]; HeLa-ACE2, concentration log[M] -8.0047): -72.126% and -55.1215% and -37.7284% and -49.8809% and -50.2572% and -55.8328% and -53.8485%
- Emax (SARS-CoV-2 [1]; Severe acute respiratory syndrome coronavirus 2, HeLa-ACE2, 24 h, read-out: HeLa-ACE2 CoV-2 Sinf Average): 93%
- EC50 (SARS-CoV-2 [1]; Severe acute respiratory syndrome coronavirus 2, HeLa-ACE2, HeLa-ACE2, MOI 0.09, read-out: EC50): 7.3 nM
- EC50 (SARS-CoV-2 [1]; Severe acute respiratory syndrome coronavirus 2, HeLa-ACE2, HeLa-ACE2, MOI 0.26, read-out: EC50): 13.6 nM
- EC50 (SARS-CoV-2 [1]; Severe acute respiratory syndrome coronavirus 2, HeLa-ACE2, HeLa-ACE2, MOI 0.51, read-out: EC50): 18.5 nM
- EC50 (SARS-CoV-2 [1]; Severe acute respiratory syndrome coronavirus 2, HeLa-ACE2, HeLa-ACE2, MOI 1.1, read-out: EC50): 19.6 nM
- EC50 (SARS-CoV-2 [1]; Severe acute respiratory syndrome coronavirus 2, HeLa-ACE2, HeLa-ACE2, MOI 2.2, read-out: EC50): 27 nM
- EC50 (SARS-CoV-2 [1]; Severe acute respiratory syndrome coronavirus 2, HeLa-ACE2, HeLa-ACE2, geomean, read-out: SARS-CoV-2 EC50): 11 nM
- EC50 (SARS-CoV-2 [1]; Severe acute respiratory syndrome coronavirus 2, HeLa-ACE2, detail column, read-out: HeLa-ACE2 CoV-2 EC50 GeoMean): < 6.39 nM
- Emax (SARS-CoV-2 [1]; Severe acute respiratory syndrome coronavirus 2, HeLa-ACE2, of uninfected cells at the highest effective concentrations, read-out: maximal efficacy): 85 to 90%
- HeLa-ACE2 SI (SARS-CoV-2 [1]; selectivity index, uninfected HeLa-ACE2 CC50 / SARS-CoV-2 EC50): > 4353.33
- CC50 at 24 h [2]: > 11500 nM
- cytotox (HeLa-ACE2 cells [3]; concentration log[M] -5): -15.1899 and -14.2304 and -15.9372 and -48.9424 and -19.1078 and -64.1429 and -33.3149 and -48.2124 and -41.1568
- cytotox (HeLa-ACE2 cells [3]; concentration log[M] -5.47712): -17.5527 and -25.9243 and -24.6903 and -15.9737 and -27.2862 and -50.2857 and -23.1323 and -17.6598 and -11.2347
- cytotox (HeLa-ACE2 cells [3]; concentration log[M] -5.95424): -21.6878 and -13.7145 and -16.6804 and -1.094 and -5.874 and -20.5714 and -18.1516 and -18.9599 and -15.1279
- cytotox (HeLa-ACE2 cells [3]; concentration log[M] -6.43136): -15.6962 and -19.7334 and -18.8274 and -9.409 and -6.171 and -21.1429 and -10.736 and -20.585 and -14.4605
- cytotox (HeLa-ACE2 cells [3]; concentration log[M] -6.90849): -10.4641 and -3.052 and -4.5417 and -0.2188 and 4.684 and -6.286 and -9.519 and -8.4507 and -3.003
- cytotox (HeLa-ACE2 cells [3]; concentration log[M] -7.38561): -11.3924 and -4.944 and -1.156 and 4.012 and 4.981 and -8.571 and -7.637 and -6.609 and -5.006
- cytotox (HeLa-ACE2 cells [3]; concentration log[M] -7.86273): 2.7 and 20.6793 and 5.12 and -0.3647 and 26.8401 and -1.429 and 8.744 and -0.2167 and 1.335
- cytotox (HeLa-ACE2 cells [3]; concentration log[M] -8.33985): 2.785 and -0.6449 and 6.028 and -5.1787 and 6.3197 and -9.571 and 2.435 and -18.4182 and -5.673
- HeLa-ACE2 uninfected cytotoxicity Sinf Average (HeLa-ACE2 cells [3]; human, uninfected HeLa-ACE2 cells, 24 h): -100%
- CC50 (HeLa-ACE2 cells [3]; read-out: HeLa-ACE2 uninfected cytotoxicity CC50 GeoMean): > 27800 nM
- %infected (SARS-CoV-2 [4]; concentration log[M] -5.00096): -58.2494% and -10.7285% and -2.646% and 11.3057% and -47.5294% and -51.353%
- %infected (SARS-CoV-2 [4]; concentration log[M] -5.47808): -10.4468% and 0.966% and 9.424% and 3.404% and -12.1011% and -29.1583%
- %infected (SARS-CoV-2 [4]; concentration log[M] -6.08014): 2.91% and 6.263% and 12.1167% and 11.1729% and -9.57% and -12.4389%
- %infected (SARS-CoV-2 [4]; concentration log[M] -6.42922): 21.192% and -5.066% and 8.086% and -7.067% and 14.7327% and 9.4894%
- %infected (SARS-CoV-2 [4]; concentration log[M] -6.90623): 6.025% and 8.588% and -2.01% and -3.119% and -8.7% and -28.761%
- %infected (SARS-CoV-2 [4]; concentration log[M] -7.50836): -9.733% and 6.842% and -19.0732% and 2.18% and 27.3224% and 13.8795%
- %infected (SARS-CoV-2 [4]; concentration log[M] -7.85886): -0.02646% and -15.3004% and -8.282% and -4.911% and 23.6525% and 32.9983%
- %infected (SARS-CoV-2 [4]; concentration log[M] -8.33602): -3.111% and 7.385% and 13.7435% and 0.4251% and 25.7217% and 25.5685%
- Emax (SARS-CoV-2 [4]; Severe acute respiratory syndrome coronavirus 2, Calu-3, 48 h, read-out: Calu-3 CoV-2 Sinf Average): 100%
- EC50 (SARS-CoV-2 [4]; read-out: Calu-3 CoV-2 EC50 GeoMean): > 9380 nM
- Calu-3 SI (SARS-CoV-2 [4]; selectivity index, uninfected Calu-3 CC50 / SARS-CoV-2 EC50): > 2.42
- SARS-CoV-2 % infected cells (SARS-CoV-2 [5]; 4:00:00 post infection): 0.1789% and 0.1674% and 0.3723%
- SARS-CoV-2 % infected cells (SARS-CoV-2 [5]; 5:00:00): 0.5955% and 0.5104% and 0.3072%
- SARS-CoV-2 % infected cells (SARS-CoV-2 [5]; 6:00:00): 15.0073% and 13.3408% and 11.3931%
- SARS-CoV-2 % infected cells (SARS-CoV-2 [5]; 7:00:00): 26.4613% and 25.6934% and 26.6142%
- SARS-CoV-2 % infected cells (SARS-CoV-2 [5]; 8:00:00): 25.5362% and 27.3903% and 25.8074%
- SARS-CoV-2 % infected cells (SARS-CoV-2 [5]; 10:00:00): 26.7887% and 26.2316% and 26.281%
- SARS-CoV-2 % infected cells (SARS-CoV-2 [5]; 11:00:00): 30.9861% and 29.9763% and 30.0495%
- SARS-CoV-2 % infected cells (SARS-CoV-2 [5]; 12:00:00): 30.3761% and 30.6313% and 31.3141%
- SARS-CoV-2 % infected cells (SARS-CoV-2 [5]; 24:00:00): 17.8372% and 19.3932% and 18.4264%
- activity when treatment was initiated at 1 hpi (SARS-CoV-2 [5]; HeLa-ACE2, 10 µM): Loss of activity
- TOA (SARS-CoV-2 [5]; concentration log[M] -5.61909): -9.8778 and -6.262 and 0.3048 and -11.9309 and -26.5472 and -5.999 and -10.1028 and 0.08491 and -22.8314
- TOA (SARS-CoV-2 [5]; concentration log[M] -6.09621): 1.8452 and 11.477 and 4.5258 and -10.0091 and -14.0586 and -2.797 and -23.1834 and -27.6557 and -36.518
- TOA (SARS-CoV-2 [5]; concentration log[M] -6.57334): -3.994 and -3.466 and -5.79 and -4.984 and -4.372 and -2.992 and -21.4509 and 1.122 and -26.1046
- TOA (SARS-CoV-2 [5]; concentration log[M] -7.05046): -6.181 and -4.5978 and -2.954 and -15.6715 and -7.849 and -0.2917 and -3.649 and -3.511 and -18.2837
- TOA (SARS-CoV-2 [5]; concentration log[M] -7.52758): 6.077 and -0.625 and 10.6098 and -1.822 and 4.214 and -1.579 and 5.171 and 1.731 and -77.382
- TOA (SARS-CoV-2 [5]; concentration log[M] -8.0047): 2.779 and 3.019 and 8.825 and -4.236 and -3.9816 and -0.9799 and 1.304 and -2.325 and -36.3674
- TOA (SARS-CoV-2 [5]; concentration log[M] -8.48182): 7.953 and 7.587 and 8.026 and -5.856 and -0.7172 and 2.883 and 9.017 and -1.346 and -21.1061
- TOA (SARS-CoV-2 [5]; concentration log[M] -8.95894): 0.4128 and 0.7327 and 13.745 and -6.2 and 7.839 and 1.622 and 7.708 and 2.325 and 1.297
- EC50 (SARS-CoV-2 [5]; Severe acute respiratory syndrome coronavirus 2, HeLa-ACE2, HeLa-ACE2, fixed 10 hpi, geomean, read-out: CoV-2 TOA EC50): > 2400 nM
- EC50 (SARS-CoV-2 [5]; read-out: HeLa-ACE2 TOA CoV-2 EC50 GeoMean): > 9610 nM
- effect on viral replication in ALI-HBECs (SARS-CoV-2 [6]): did not
- EC50 (HeLa-ACE2 cells [7]): > 9610 nM
- EC50 (Calu-3 cells [8]): > 9980 nM
- uninfected Calu-3 CC50 (Calu-3 cells [9]): > 22.719 ×÷ 1.728 (n=4) μM
- Calu-3 uninfected cytotoxicity Sinf Average (Calu-3 cells [9]; human, 48 h): -100%
- Emax (HeLa-ACE2 cells [10]; HeLa-ACE2, 24 h, read-out: HeLa-ACE2 cell count Sinf Average): 100%
- EC50 (HeLa-ACE2 cells [10]; HeLa-ACE2, read-out: cell count in infection assay EC50, HeLa-ACE2, geomean, ^↑ = increasing dose-response curve): > 2400 nM
- Emax (Calu-3 cells [11]): 100%
- CC50 at 48 h (in vitro): > 22700 nM
